In ChEMBL document CHEMBL1201862, “PubChem BioAssay data set” (2004):
Active and inactive are the calls of the source.

Columns and labels:
[1] = THP-1 cell cytotoxicity, dose response, cytotoxicity control for non-replicating M. tuberculosis project (AID 489025); format: functional
cells [2] = format: functional
[3] = Vero E6 cell cytotoxicity, dose response, cytotoxicity control for non-replicating M. tuberculosis project, secondary assay (AID 492998); format: functional, VeroE6; settings: Vero C1008
[4] = target: Serine/threonine-protein phosphatase PP1-alpha catalytic subunit (Homo sapiens, UniProt P62136); assay: PP1 phosphatase inhibitors, dose response, biochemical, fluorescence (AID 2403);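 note: phosphatase turnover of OMFP into fluorescent 3-O-methylfluorescein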
Sequence of Serine/threonine-protein phosphatase PP1-alpha catalytic subunit (P62136 whole entry): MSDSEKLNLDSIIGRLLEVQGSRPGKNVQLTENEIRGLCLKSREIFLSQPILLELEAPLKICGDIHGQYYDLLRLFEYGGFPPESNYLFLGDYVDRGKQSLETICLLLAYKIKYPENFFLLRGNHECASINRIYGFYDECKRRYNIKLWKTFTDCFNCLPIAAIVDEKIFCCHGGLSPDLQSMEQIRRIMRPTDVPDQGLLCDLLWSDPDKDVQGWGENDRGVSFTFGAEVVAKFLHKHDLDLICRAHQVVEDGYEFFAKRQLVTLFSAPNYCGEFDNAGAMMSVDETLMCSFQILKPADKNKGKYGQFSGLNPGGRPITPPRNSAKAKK

Coagulation factor XII = target: T1, Coagulation factor XII (Homo sapiens, UniProt P00748); format: functional;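 note: activated factor XIIa alpha cleaving a fluorogenic AMC peptide substrate; inhibitor potency from loss of enzyme activity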
T1 sequence (P00748 whole entry): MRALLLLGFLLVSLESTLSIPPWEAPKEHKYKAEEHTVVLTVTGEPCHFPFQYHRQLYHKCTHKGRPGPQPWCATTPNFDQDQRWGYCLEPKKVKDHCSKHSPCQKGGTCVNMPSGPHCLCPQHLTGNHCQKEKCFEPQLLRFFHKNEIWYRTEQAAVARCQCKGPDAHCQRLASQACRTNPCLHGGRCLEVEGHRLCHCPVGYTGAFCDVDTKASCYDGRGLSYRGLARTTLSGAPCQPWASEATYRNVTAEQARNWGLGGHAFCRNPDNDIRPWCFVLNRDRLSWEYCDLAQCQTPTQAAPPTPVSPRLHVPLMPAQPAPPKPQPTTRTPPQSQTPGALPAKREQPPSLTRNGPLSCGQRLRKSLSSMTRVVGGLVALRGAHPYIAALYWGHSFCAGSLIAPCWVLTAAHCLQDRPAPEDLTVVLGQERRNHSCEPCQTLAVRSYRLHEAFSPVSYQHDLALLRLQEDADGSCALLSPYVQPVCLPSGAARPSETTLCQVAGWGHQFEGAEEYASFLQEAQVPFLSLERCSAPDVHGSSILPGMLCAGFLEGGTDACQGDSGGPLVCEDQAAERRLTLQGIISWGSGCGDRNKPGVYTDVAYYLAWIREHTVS

[5] = target: T2, Serine/threonine-protein phosphatase (Homo sapiens, UniProt Q9BPW0); assay: Counterscreen for inhibitors of PP1: fluorescence-based biochemical high throughput dose response assay to identify inhibitors of Protein Phosphatase 5 (PP5). [Related pubchem assays: 2034 (Summary (PP5 inhibitors)), 1987 (PP5 inhibitors in singlate), 2235 (PP1 inhibitors in singlate)]
T2 sequence (Q9BPW0 whole entry): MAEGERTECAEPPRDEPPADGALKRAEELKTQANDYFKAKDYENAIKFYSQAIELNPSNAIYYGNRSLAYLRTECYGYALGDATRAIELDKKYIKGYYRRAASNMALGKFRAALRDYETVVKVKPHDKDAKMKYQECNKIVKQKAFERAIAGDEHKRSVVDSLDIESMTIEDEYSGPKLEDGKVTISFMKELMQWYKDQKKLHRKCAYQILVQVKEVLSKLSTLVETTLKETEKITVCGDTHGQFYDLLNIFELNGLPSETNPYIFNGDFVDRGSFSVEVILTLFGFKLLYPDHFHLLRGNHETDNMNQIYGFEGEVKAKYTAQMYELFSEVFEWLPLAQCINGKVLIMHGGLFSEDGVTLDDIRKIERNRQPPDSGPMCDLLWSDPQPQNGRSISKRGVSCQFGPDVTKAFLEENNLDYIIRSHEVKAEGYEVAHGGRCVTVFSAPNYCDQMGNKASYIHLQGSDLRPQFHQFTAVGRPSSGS

[6] = target: T3, Polyadenylate-binding protein 1 (Homo sapiens, UniProt P11940); assay: PABP1 MLLE–PAM2 interaction inhibitors, dose response, miRNA deadenylation inhibitor project, biochemical, fluorescence polarization, Cy5-PAM2 peptide, secondary (AID 602260); format: functional; settings: read-out: IC50_Mean
T3 sequence (P11940 whole entry): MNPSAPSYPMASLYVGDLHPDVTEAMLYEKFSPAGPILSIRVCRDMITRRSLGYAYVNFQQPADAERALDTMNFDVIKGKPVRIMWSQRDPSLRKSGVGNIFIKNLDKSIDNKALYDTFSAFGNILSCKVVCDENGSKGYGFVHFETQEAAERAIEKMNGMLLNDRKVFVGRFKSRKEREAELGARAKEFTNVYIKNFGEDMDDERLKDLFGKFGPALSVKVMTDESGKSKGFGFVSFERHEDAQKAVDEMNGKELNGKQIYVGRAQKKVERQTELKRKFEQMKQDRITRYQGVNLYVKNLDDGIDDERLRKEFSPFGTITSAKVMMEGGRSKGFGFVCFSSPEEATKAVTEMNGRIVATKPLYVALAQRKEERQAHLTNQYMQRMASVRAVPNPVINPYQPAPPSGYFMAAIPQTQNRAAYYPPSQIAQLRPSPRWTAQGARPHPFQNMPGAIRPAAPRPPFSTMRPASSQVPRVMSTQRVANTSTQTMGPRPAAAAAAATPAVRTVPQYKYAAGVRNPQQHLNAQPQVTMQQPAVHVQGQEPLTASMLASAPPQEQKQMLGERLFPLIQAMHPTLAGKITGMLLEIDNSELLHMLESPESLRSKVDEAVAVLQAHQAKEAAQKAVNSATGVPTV

Troponin, cardiac muscle = Troponin, cardiac muscle (Homo sapiens, UniProt P19429+P45379+P63316); assay: Fluorescence-based biochemical high throughput dose response assay for activators of the calcium sensitivity of cardiac Regulated Thin Filaments (RTF). [Related pubchem assays (depositor defined):AID493008, AID493018, AID504382, AID504383]; format: protein-complex assay
[7] = target: T3, Polyadenylate-binding protein 1; assay: PABP1 MLLE–PAM2 binding inhibitor potency, dose response, biochemical, fluorescence polarization, FITC-PAM2 peptide (AID 602259); format: functional; settings: read-out: IC50_Mean
Protein skinhead-1 = target: T4, Protein skinhead-1 (Caenorhabditis elegans, UniProt P34707); format: functional
T4 sequence (P34707 whole entry): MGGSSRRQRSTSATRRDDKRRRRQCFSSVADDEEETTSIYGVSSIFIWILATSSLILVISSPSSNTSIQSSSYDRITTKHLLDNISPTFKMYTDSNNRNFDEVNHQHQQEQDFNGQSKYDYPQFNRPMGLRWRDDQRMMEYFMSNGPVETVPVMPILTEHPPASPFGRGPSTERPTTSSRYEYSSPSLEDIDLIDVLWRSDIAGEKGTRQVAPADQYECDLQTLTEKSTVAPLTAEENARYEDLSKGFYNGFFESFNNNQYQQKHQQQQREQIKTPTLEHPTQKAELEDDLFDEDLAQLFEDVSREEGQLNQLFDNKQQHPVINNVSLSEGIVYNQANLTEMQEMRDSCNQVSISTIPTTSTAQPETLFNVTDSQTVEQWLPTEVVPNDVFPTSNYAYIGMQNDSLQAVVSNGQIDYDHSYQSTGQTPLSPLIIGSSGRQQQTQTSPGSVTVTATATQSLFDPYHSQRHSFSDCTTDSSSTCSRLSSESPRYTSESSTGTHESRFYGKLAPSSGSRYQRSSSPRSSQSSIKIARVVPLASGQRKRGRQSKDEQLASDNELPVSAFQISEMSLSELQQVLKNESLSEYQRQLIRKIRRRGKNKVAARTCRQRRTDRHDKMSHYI

[8] = target: G-protein coupled receptor 55 (Homo sapiens, UniProt Q9Y2T6); assay: GPR55 antagonists blocking LPI-driven arrestin recruitment, primary screen, imaging, U2OS, beta-arrestin-GFP, LPI agonist (AID 2013); format: functional;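 note: antagonist potency measured as reduced agonist-driven arrestin aggregation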
[9] = Luminescence Cell-Based Dose Retest to Confirm Inhibitors of Cancer Stem Cells. [Related pubchem assays (depositor defined):AID2717, AID2721]; format: functional; settings: Homo sapiens
[10] = target: Voltage-dependent T-type calcium channel subunit alpha-1H (Homo sapiens, UniProt O95180); format: functional;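 note: channel activity triggered by adding a high calcium stimulation buffer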
Sequence of Voltage-dependent T-type calcium channel subunit alpha-1H (O95180 whole entry): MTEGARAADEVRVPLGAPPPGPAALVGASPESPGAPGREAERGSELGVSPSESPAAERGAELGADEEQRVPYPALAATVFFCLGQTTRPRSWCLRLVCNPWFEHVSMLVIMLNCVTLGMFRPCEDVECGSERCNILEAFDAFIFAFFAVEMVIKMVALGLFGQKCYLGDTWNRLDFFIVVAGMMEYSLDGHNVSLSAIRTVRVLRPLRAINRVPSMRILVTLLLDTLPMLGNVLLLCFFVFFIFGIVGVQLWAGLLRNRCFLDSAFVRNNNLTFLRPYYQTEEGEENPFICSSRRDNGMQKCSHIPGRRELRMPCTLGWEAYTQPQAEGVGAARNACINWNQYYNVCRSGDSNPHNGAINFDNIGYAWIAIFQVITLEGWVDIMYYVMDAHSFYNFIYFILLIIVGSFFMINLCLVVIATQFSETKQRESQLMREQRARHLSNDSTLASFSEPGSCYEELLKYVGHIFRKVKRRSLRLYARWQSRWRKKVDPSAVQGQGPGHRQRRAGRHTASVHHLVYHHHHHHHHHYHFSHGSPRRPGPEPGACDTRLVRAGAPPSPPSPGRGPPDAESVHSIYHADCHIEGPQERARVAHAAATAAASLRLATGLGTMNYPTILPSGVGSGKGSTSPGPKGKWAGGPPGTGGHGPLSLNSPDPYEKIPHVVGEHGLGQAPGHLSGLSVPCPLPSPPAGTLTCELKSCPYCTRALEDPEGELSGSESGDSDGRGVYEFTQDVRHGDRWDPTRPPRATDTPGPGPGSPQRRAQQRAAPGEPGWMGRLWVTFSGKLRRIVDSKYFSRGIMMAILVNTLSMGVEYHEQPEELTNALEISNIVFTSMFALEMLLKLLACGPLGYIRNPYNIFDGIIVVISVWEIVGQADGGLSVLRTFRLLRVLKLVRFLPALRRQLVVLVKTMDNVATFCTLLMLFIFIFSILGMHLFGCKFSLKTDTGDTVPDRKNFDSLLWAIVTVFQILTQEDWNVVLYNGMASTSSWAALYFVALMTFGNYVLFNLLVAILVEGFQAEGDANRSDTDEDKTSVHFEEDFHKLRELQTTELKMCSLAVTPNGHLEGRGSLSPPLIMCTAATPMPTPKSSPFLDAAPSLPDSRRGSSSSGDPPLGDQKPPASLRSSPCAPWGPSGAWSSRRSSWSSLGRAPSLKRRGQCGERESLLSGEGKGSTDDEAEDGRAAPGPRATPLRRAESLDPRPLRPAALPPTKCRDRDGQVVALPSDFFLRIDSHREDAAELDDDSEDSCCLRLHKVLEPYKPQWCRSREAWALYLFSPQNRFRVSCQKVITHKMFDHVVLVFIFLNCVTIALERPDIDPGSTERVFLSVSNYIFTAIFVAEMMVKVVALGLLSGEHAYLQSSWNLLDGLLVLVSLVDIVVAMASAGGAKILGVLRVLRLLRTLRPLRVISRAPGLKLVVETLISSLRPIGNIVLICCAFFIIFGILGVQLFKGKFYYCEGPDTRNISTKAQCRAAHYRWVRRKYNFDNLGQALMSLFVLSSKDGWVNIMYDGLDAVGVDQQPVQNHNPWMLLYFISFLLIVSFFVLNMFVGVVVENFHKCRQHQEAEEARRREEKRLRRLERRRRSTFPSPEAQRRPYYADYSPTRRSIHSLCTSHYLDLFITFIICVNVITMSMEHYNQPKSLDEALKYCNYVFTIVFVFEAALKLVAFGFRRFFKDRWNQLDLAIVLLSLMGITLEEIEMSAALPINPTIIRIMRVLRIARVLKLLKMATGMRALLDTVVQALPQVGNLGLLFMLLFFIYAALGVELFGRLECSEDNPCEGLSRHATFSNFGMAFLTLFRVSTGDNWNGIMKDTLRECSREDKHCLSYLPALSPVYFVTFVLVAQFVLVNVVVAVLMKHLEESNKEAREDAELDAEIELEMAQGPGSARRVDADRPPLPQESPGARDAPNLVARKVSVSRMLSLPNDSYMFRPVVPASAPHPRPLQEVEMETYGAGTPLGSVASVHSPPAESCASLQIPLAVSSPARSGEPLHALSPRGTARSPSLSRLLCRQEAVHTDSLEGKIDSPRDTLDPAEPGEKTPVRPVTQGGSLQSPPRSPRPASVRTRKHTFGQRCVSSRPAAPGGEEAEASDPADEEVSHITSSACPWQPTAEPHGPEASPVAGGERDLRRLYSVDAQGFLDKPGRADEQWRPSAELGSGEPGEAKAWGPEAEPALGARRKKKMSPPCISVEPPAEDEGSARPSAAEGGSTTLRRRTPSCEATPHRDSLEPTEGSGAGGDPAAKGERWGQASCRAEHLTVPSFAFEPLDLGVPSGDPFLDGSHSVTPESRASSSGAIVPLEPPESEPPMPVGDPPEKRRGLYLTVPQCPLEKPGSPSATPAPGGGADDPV

[11] = A Cell Based Secondary Assay To Explore Cytotoxicity of Compounds that Sensitize Mycobacterium Tuberculosis to Beta-Lactam Antibiotics.; format: functional
Cytochrome P450 2D6 = Cytochrome P450 2D6 (Homo sapiens, UniProt P10635);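 note: CYP2D6 member of a cytochrome P450 panel assay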
Sequence of Cytochrome P450 2D6 (P10635 whole entry): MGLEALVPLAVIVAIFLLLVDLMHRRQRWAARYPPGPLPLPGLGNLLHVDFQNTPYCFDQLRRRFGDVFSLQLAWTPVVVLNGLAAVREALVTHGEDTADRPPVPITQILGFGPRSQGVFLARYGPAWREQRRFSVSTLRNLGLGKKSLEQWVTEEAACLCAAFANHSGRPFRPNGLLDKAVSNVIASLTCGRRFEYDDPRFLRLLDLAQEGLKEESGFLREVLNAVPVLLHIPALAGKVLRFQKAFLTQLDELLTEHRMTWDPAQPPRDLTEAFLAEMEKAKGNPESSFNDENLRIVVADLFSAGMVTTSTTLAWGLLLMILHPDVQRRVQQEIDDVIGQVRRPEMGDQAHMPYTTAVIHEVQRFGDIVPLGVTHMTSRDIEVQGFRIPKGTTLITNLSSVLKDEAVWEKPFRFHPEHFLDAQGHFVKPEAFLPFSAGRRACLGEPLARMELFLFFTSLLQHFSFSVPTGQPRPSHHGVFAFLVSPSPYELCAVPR

Streptococcus = assay: Group A Streptococcus viability loss, dose response, counter-screen for streptokinase expression inhibitor project, luminescence, BacTiterGlo (AID 1915); format: functional, organism-based;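 note: potency for reduction of bacterial viability or growth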
[12] = test system: Streptococcus sp. 'group A'; assay: growth inhibition of control SK(-) GAS strain, dose response, counter-screen for streptokinase expression inhibitor project, luminescence, kanamycin, BacTiterGlo, confirmation (AID 1900); format: functional, organism-based
Streptokinase A = target: T5, Streptokinase A (Streptococcus pyogenes serotype M1, UniProt P10520); assay: S. pyogenes streptokinase expression inhibitors, potency, dose response, plasminogen activation absorbance, OD405 (AID 1914); format: functional, Streptococcus pyogenes M1 GAS;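 note: secreted streptokinase activity via plasminogen activation per viability signal from cell pellet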
T5 sequence (P10520 whole entry): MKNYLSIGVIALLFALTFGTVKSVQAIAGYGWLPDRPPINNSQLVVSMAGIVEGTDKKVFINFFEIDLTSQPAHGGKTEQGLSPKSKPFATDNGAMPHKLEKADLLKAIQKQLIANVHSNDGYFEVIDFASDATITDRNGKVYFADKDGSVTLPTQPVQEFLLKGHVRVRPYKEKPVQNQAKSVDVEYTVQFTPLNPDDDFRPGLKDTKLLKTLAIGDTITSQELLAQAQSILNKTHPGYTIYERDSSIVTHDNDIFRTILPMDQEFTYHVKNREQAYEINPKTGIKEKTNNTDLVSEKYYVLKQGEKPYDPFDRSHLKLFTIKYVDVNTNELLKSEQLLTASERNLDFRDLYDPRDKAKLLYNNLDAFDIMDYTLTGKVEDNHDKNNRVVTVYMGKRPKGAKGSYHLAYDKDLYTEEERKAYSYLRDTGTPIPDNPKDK

[13] = inhibitors of intracellular T. cruzi replication, confirmation, NIH3T3 host cells, beta-gal luminescence (AID 2044); format: functional, cell-based;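 note: intracellular parasites grown in NIH/3T3 mouse fibroblasts as host cells; luminescent beta-galactosidase reporter signal from transgenic T. cruzi replicating inside host cells; inhibitors lower the luminescence signal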
[14] = cytotoxicity toward NIH3T3 fibroblasts, dose response, counter-screen, cell-based, ATP luminescence, mouse fibroblasts (AID 2010); format: functional;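 note: cells exposed to compound for about 90 hours before reading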
cells [15] = format: functional, cell-based
cells [16] = format: functional, cell-based; remark: listed apart in the source
[17] = target: T6, Trace amine-associated receptor 1 (Homo sapiens, UniProt Q96RJ0); assay: Counterscreen for agonists of the human trace amine associated receptor 1 (hTAAR1): Fluorescence-based cell-based high throughput dose response assay to identify hTAAR1 agonist that also desensitize TAAR1 receptor response.; format: functional
T6 sequence (Q96RJ0 whole entry): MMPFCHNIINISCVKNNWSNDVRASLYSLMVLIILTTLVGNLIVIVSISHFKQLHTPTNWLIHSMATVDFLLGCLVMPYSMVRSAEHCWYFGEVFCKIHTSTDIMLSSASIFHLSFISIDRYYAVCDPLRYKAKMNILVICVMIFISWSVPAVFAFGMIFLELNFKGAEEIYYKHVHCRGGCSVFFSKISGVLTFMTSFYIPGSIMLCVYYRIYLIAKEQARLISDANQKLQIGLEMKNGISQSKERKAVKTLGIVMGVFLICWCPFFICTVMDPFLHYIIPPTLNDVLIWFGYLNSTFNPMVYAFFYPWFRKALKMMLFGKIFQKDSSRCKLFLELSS

[18] = target: T6, Trace amine-associated receptor 1; assay: Fluorescence-based cell-based high throughput dose response assay to identify agonists of the human trace amine associated receptor 1 (TAAR1).; format: functional
[19] = target: Heat shock cognate 71 kDa protein (Homo sapiens, UniProt P11142); assay: In Vitro Hsc70 Dose Response Fluorescence Polarization Assay. [Related pubchem assays: 1072 ]
Sequence of Heat shock cognate 71 kDa protein (P11142 whole entry): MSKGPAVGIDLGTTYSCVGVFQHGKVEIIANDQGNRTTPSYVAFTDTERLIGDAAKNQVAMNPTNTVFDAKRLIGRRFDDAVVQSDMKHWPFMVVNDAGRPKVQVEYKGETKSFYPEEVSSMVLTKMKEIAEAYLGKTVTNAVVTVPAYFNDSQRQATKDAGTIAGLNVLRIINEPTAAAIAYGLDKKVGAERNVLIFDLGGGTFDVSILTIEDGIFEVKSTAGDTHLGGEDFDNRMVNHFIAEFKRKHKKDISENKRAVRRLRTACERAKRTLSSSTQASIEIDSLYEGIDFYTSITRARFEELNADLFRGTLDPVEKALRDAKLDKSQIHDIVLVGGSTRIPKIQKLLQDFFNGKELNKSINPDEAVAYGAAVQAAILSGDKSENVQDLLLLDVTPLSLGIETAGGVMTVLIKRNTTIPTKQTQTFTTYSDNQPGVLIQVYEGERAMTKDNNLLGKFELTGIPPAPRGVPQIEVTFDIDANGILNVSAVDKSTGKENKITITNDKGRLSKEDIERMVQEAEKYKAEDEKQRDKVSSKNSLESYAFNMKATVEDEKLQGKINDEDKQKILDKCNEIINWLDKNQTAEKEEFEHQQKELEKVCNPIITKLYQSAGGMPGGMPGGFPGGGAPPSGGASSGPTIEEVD

[20] = target: Heat shock 70 kDa protein 1A (Homo sapiens, UniProt P0DMV8); assay: Hsp70 inhibitors, SAR follow-up, biochemical, fluorescence polarization (AID 1072)
Sequence of Heat shock 70 kDa protein 1A (P0DMV8 whole entry): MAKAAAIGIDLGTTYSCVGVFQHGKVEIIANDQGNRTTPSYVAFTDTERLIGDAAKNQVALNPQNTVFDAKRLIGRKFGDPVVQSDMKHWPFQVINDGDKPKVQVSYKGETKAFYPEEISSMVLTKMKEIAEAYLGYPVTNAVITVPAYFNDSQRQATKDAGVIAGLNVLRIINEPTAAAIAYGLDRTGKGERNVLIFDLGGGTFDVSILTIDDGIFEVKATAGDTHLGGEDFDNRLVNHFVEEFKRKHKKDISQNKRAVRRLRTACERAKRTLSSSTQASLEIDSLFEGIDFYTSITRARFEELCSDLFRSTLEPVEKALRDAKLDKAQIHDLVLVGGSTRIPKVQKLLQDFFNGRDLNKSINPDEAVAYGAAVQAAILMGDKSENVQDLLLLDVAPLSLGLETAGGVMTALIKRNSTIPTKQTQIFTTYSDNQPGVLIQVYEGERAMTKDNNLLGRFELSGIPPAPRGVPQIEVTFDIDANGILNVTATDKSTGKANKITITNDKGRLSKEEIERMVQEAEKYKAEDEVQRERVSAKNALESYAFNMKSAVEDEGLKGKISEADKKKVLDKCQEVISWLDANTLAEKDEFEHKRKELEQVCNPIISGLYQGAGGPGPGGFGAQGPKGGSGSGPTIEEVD

COc1cccc(-c2nnc(NC(=O)c3cccc(F)c3)o2)c1
CC50 [1]: 13 µM (active) | IC50 (cells [2]): 3.03 µM (active) | CC50 [3]: 9 µM (active)

CC1CC(NC(=O)C2C3CCC(O3)C2C(=O)O)CC(C)(C)C1 (stereo unspecified)
IC50 [4]: 2.85 µM (active) | IC50 (Coagulation factor XII): > 50 µM (inactive) | IC50 [5]: 2.78 µM (active)

COC(=O)C1=C(C)NC(=O)/C1=C\N(C)C
IC50 [6]: > 66 µM (inactive) | EC50 (Troponin, cardiac muscle): > 71.5 µM (inactive) | IC50 [7]: > 66 µM (inactive) | IC50 (Protein skinhead-1): > 100 µM (inactive)

N#C/C(=C\c1ccccc1[N+](=O)[O-])C(=O)NCc1ccccc1
IC50 [6]: > 66 µM (inactive) | IC50 [8]: 3.09 µM (active) | IC50 [7]: > 66 µM (inactive)

CCC(c1nnnn1Cc1ccco1)N1CCN(c2cc(Cl)ccc2C)CC1 (stereo unspecified)
AC50 [9]: 3.44 µM (active) | EC50 [10]: 4.19 µM (active)

COc1ccc(C(=O)/C=C/c2cn(CC(O)CN3CCN(C)CC3)c3ccccc23)cc1OC (stereo unspecified)
EC50 (Troponin, cardiac muscle): 12.3 µM (inactive)

Cn1nccc1NC(=O)Nc1cccc(Cl)c1Cl
EC50 (Troponin, cardiac muscle): > 71.4 µM (inactive)

COc1ccc(CN(CCC#N)C(=S)NC(=O)c2ccccc2)cc1
CC50 [11]: 39 µM (active) | AC50 (Cytochrome P450 2D6): 25.1 µM (inconclusive)

COc1ccccc1Sc1nc(-c2ccccn2)ncc1OC
EC50 (Streptococcus): > 150 µM (not active) | IC50 [4]: 7.52 µM (active) | EC50 [12]: 27.1 µM (active) | IC50 [5]: 66.8 µM (not active) | EC50 (Streptokinase A): > 150 µM (not active)

O=C(Nc1ccccc1-c1nnc(SCc2ccc(Cl)cc2)o1)c1ccccc1
EC50 [10]: 6.46 µM (active) | EC50 [13]: 2.22 µM (active) | EC50 [14]: > 60 µM (not active)

CCn1cc(C(=O)O)c(=O)c2cc(F)c(N/N=C/c3ccccc3)cc21
IC50 (cells [15]): > 29.9 µM (inactive) | EC50 (cells [16]): > 29.9 µM (inactive) | IC50 [17]: 1.68 µM (active) | CC50 [11]: 34.1 µM (active) | EC50 [18]: 19.7 µM (inactive)

CC1C2C=CC1C(c1c3ccc(=O)c(O)c-3oc3c(O)c(O)ccc13)C2C(=O)O (stereo unspecified)
IC50 [19]: 5.58 µM (active) | IC50 [20]: 0.634 µM (active)

O=C1Nc2ccccc2N2CCCC12 (stereo unspecified)
IC50 [4]: > 67 µM (not active) | IC50 [5]: > 2.48 µM (active)
